{"source": "patent US8889874B2", "about": "“Imidazolone-chalcone derivatives as potential anticancer agent and process for the preparation thereof” (Council of Scientific and Industrial Research, priority 2010, dated 2014)", "format_in_all_cases": "cell-based, human", "key": {"[1]": {"test_system": "A549/ATCC (non-small cell lung)", "test": "NCI anticancer screen, SRB assay, 48 h", "procedure,_shortened": "(§1)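 Sulforhodamine B protein assay read cell growth after 48 h of continuous compound exposure. Dose-response curves per cell line used at least five 10-fold-diluted concentrations, within a panel of fifty-three human lines from nine tumour types.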"}, "[2]": {"test_system": "CAKI-1 (renal)", "test": "NCI anticancer screen, SRB assay, 48 h", "procedure,_shortened": "as §1"}, "[3]": {"test_system": "HCC-2998 (colon)", "test": "NCI anticancer screen, SRB assay, 48 h", "procedure,_shortened": "as §1"}, "[4]": {"test_system": "HCT-116 (colon)", "test": "NCI anticancer screen, SRB assay, 48 h", "procedure,_shortened": "as §1"}, "[5]": {"test_system": "HCT-15 (colon)", "test": "NCI anticancer screen, SRB assay, 48 h", "procedure,_shortened": "as §1"}, "[6]": {"test_system": "MDA-MB-435 (melanoma)", "test": "NCI anticancer screen, SRB assay, 48 h", "procedure,_shortened": "as §1"}, "[7]": {"test_system": "NCI/ADR-RES (ovarian)", "test": "NCI anticancer screen, SRB assay, 48 h", "procedure,_shortened": "as §1"}, "[8]": {"test_system": "OVCAR-4 (ovarian)", "test": "NCI anticancer screen, SRB assay, 48 h", "procedure,_shortened": "as §1"}, "[9]": {"test_system": "RPMI-8226 (leukemia cell line)", "test": "NCI anticancer screen, SRB assay, 48 h", "procedure,_shortened": "as §1"}, "[10]": {"test_system": "SK-MEL-5 (melanoma)", "test": "NCI anticancer screen, SRB assay, 48 h", "procedure,_shortened": "as §1"}, "[11]": {"test_system": "SN12C (renal)", "test": "NCI anticancer screen, SRB assay, 48 h", "procedure,_shortened": "as §1"}, "[12]": {"test_system": "SNB-19 (CNS)", "test": "NCI anticancer screen, SRB assay, 48 h", "procedure,_shortened": "as §1"}, "[13]": {"test_system": "TD-47D (breast)", "test": "NCI anticancer screen, SRB assay, 48 h", "procedure,_shortened": "as §1"}, "[14]": {"test_system": "TK-10 (renal)", "test": "NCI anticancer screen, SRB assay, 48 h", "procedure,_shortened": "as §1"}, "[15]": {"test_system": "U251 (CNS)", "test": "NCI anticancer screen, SRB assay, 48 h", "procedure,_shortened": "as §1"}, "[16]": {"test_system": "UACC-257 (melanoma)", "test": "NCI anticancer screen, SRB assay, 48 h", "procedure,_shortened": "as §1"}, "[17]": {"test_system": "Breast cancer cell lines", "test": "NCI anticancer screen, SRB assay, panel summary", "protocol": "(§2) Some of biological activity studies were carried out at the National Cancer Institute (NCI), Maryland, USA.\n(§3) The compounds were evaluated for anticancer activity against fifty three human cancer cells derived from nine cancer types (leukemia cell line, non-small-cell lung cell line, colon cell line, CNS cell line, melanoma cell line, ovarian cell line, prostate cell line, and breast cancer cell line) as shown in Table 1. For each compound, dose response curves for each cell line were measured at a minimum of five concentrations at 10 fold dilutions. A protocol of 48 h continuous drug exposure was used and a sulforhodamine B (SRB) protein assay was used to estimate cell viability or growth."}, "[18]": {"test_system": "CNS cancer cell lines", "test": "NCI anticancer screen, SRB assay, panel summary", "conditions": "CNS panel", "protocol": "as §2, §3"}, "[19]": {"test_system": "Colon cancer cell lines", "test": "NCI anticancer screen, SRB assay, panel summary", "conditions": "Colon panel", "protocol": "as §2, §3"}, "[20]": {"test_system": "Leukemia cancer cell lines", "test": "NCI anticancer screen, SRB assay, panel summary", "conditions": "Leukemia panel", "protocol": "as §2, §3"}, "[21]": {"test_system": "Melanoma cancer cell lines", "test": "NCI anticancer screen, SRB assay, panel summary", "conditions": "Melanoma panel", "protocol": "as §2, §3"}, "[22]": {"test_system": "Non-small cell lung cancer cell lines", "test": "NCI anticancer screen, SRB assay, panel summary", "protocol": "as §2, §3"}, "[23]": {"test_system": "Ovarian cancer cell lines", "test": "NCI anticancer screen, SRB assay, panel summary", "protocol": "as §2, §3"}, "[24]": {"test_system": "Renal cancer cell lines", "test": "NCI anticancer screen, SRB assay, panel summary", "protocol": "as §2, §3"}, "[25]": {"conditions": "48 h exposure, SRB, read-out: GI50"}, "[26]": {"conditions": "log of concentration in mol/L causing 50% inhibition of net cell growth"}, "[27]": {"conditions": "log of concentration leading to 50% net cell death"}, "[28]": {"conditions": "log of concentration resulting in total inhibition of net cell growth"}}}
{"smiles": "COc1cc(/C=C/C(=O)c2cccc(-n3cc(-c4ccc(Cl)cc4)[nH]c3=O)c2)cc(OC)c1OC", "note": "[5f, 4-(4-chlorophenyl)-1-3-[(E)-3-(3,4,5-trimethoxyphenyl)-2-propenoyl]phenyl-2,3-dihydro-1H-2-imidazolone]", "values": [{"measurement": "pGI50 (-log of molar concentration causing 50% inhibition of net cell growth)", "setting": "[1]", "result": 4.07}, {"measurement": "GI50", "setting": "[1]; [25]", "result": 85.2, "unit": "µM"}, {"measurement": "pGI50 (-log of molar concentration causing 50% inhibition of net cell growth)", "setting": "[2]", "result": 4.81}, {"measurement": "pGI50 (-log of molar concentration causing 50% inhibition of net cell growth)", "setting": "[3]", "result": 5.61}, {"measurement": "GI50", "setting": "[3]; [25]", "result": 2.46, "unit": "µM"}, {"measurement": "pGI50 (-log of molar concentration causing 50% inhibition of net cell growth)", "setting": "[4]", "result": 5.86}, {"measurement": "GI50", "setting": "[4]; [25]", "result": 1.39, "unit": "µM"}, {"measurement": "pGI50 (-log of molar concentration causing 50% inhibition of net cell growth)", "setting": "[5]", "result": 5.41}, {"measurement": "GI50", "setting": "[5]; [25]", "result": 3.85, "unit": "µM"}, {"measurement": "pGI50 (-log of molar concentration causing 50% inhibition of net cell growth)", "setting": "[6]", "result": 5.44}, {"measurement": "GI50", "setting": "[6]; [25]", "result": 3.63, "unit": "µM"}, {"measurement": "pGI50 (-log of molar concentration causing 50% inhibition of net cell growth)", "setting": "[7]; NCI/ADR-RES", "result": 5.63}, {"measurement": "GI50", "setting": "[7]; NCl/ADR-RES, 48 h exposure, SRB, read-out: GI50", "result": 2.36, "unit": "µM"}, {"measurement": "pGI50 (-log of molar concentration causing 50% inhibition of net cell growth)", "setting": "[8]", "result": 4.94}, {"measurement": "GI50", "setting": "[8]; [25]", "result": 11.4, "unit": "µM"}, {"measurement": "pGI50 (-log of molar concentration causing 50% inhibition of net cell growth)", "setting": "[9]", "result": 5.41}, {"measurement": "GI50", "setting": "[9]; [25]", "result": 3.92, "unit": "µM"}, {"measurement": "pGI50 (-log of molar concentration causing 50% inhibition of net cell growth)", "setting": "[10]", "result": 5.06}, {"measurement": "GI50", "setting": "[10]; [25]", "result": 8.7, "unit": "µM"}, {"measurement": "pGI50 (-log of molar concentration causing 50% inhibition of net cell growth)", "setting": "[11]; SN 12C", "result": 5.29}, {"measurement": "GI50", "setting": "[11]; SN12C, 48 h exposure, SRB, read-out: GI50", "result": 5.14, "unit": "µM"}, {"measurement": "pGI50 (-log of molar concentration causing 50% inhibition of net cell growth)", "setting": "[12]", "result": 4.79}, {"measurement": "GI50", "setting": "[12]; [25]", "result": 16.1, "unit": "µM"}, {"measurement": "pGI50 (-log of molar concentration causing 50% inhibition of net cell growth)", "setting": "[13]", "result": 5.18}, {"measurement": "GI50", "setting": "[13]; [25]", "result": 6.65, "unit": "µM"}, {"measurement": "pGI50 (-log of molar concentration causing 50% inhibition of net cell growth)", "setting": "[14]", "result": 5.19}, {"measurement": "GI50", "setting": "[14]; [25]", "result": 6.46, "unit": "µM"}, {"measurement": "pGI50 (-log of molar concentration causing 50% inhibition of net cell growth)", "setting": "[15]", "result": 5.67}, {"measurement": "GI50", "setting": "[15]; [25]", "result": 2.12, "unit": "µM"}, {"measurement": "pGI50 (-log of molar concentration causing 50% inhibition of net cell growth)", "setting": "[16]", "result": 4.76}, {"measurement": "GI50", "setting": "[16]; [25]", "result": 17.4, "unit": "µM"}, {"measurement": "mean graph midpoint (MG_MID) of Log10 LC50", "setting": "[17]", "result": 4.11}, {"measurement": "mean graph midpoint (MG_MID) of Log10 GI50", "setting": "[17]; Breast panel, log of concentration in mol/L causing 50% inhibition of net cell growth", "result": 5.18}, {"measurement": "mean graph midpoint (MG_MID) of Log10 TGI", "setting": "[17]; Breast panel, log of concentration resulting in total inhibition of net cell growth", "result": 4.38}, {"measurement": "mean graph midpoint (MG_MID) of Log10 GI50", "setting": "[18]; [26]", "result": 5.08}, {"measurement": "mean graph midpoint (MG_MID) of Log10 LC50", "setting": "[18]; [27]", "result": 4.24}, {"measurement": "mean graph midpoint (MG_MID) of Log10 TGI", "setting": "[18]; [28]", "result": 4.50}, {"measurement": "mean graph midpoint (MG_MID) of Log10 GI50", "setting": "[19]; [26]", "result": 5.53}, {"measurement": "mean graph midpoint (MG_MID) of Log10 LC50", "setting": "[19]; [27]", "result": 4.76}, {"measurement": "mean graph midpoint (MG_MID) of Log10 TGI", "setting": "[19]; [28]", "result": 5.15}, {"measurement": "mean graph midpoint (MG_MID) of Log10 GI50", "setting": "[20]; [26]", "result": 5.42}, {"measurement": "mean graph midpoint (MG_MID) of Log10 TGI", "setting": "[20]; [28]", "result": 4.00}, {"measurement": "mean graph midpoint (MG_MID) of Log10 GI50", "setting": "[21]; [26]", "result": 5.17}, {"measurement": "mean graph midpoint (MG_MID) of Log10 LC50", "setting": "[21]; [27]", "result": 4.24}, {"measurement": "mean graph midpoint (MG_MID) of Log10 TGI", "setting": "[21]; [28]", "result": 4.56}, {"measurement": "mean graph midpoint (MG_MID) of Log10 LC50", "setting": "[22]", "result": 4.06}, {"measurement": "mean graph midpoint (MG_MID) of Log10 GI50", "setting": "[22]; Non-small cell lung panel, log of concentration in mol/L causing 50% inhibition of net cell growth", "result": 4.72}, {"measurement": "mean graph midpoint (MG_MID) of Log10 TGI", "setting": "[22]; Non-small cell lung panel, log of concentration resulting in total inhibition of net cell growth", "result": 4.28}, {"measurement": "mean graph midpoint (MG_MID) of Log10 LC50", "setting": "[23]", "result": 4.22}, {"measurement": "mean graph midpoint (MG_MID) of Log10 GI50", "setting": "[23]; Ovarian panel, log of concentration in mol/L causing 50% inhibition of net cell growth", "result": 5.26}, {"measurement": "mean graph midpoint (MG_MID) of Log10 TGI", "setting": "[23]; Ovarian panel, log of concentration resulting in total inhibition of net cell growth", "result": 4.62}, {"measurement": "mean graph midpoint (MG_MID) of Log10 LC50", "setting": "[24]", "result": 3.73}, {"measurement": "mean graph midpoint (MG_MID) of Log10 GI50", "setting": "[24]; Renal panel, log of concentration in mol/L causing 50% inhibition of net cell growth", "result": 5.15}, {"measurement": "mean graph midpoint (MG_MID) of Log10 TGI", "setting": "[24]; Renal panel, log of concentration resulting in total inhibition of net cell growth", "result": 4.55}]}
